Laboratory results taken from patent US8399509B2, “Glucopyranoside derivatives” (Merck Patent Gesellschaft mit beschrankter Haftung, priority 2008, dated 2013).

What was measured:
[1] = target: T1, SGLT2 (Homo sapiens, UniProt P31639); test: 14C-AMG uptake in BHK cells transfected with SGLT2; assay type: cell-based; details: 2 mM AMG, 37° C., 90 min
T1 construct: expressed in transfected cells
T1 sequence (P31639 1-672): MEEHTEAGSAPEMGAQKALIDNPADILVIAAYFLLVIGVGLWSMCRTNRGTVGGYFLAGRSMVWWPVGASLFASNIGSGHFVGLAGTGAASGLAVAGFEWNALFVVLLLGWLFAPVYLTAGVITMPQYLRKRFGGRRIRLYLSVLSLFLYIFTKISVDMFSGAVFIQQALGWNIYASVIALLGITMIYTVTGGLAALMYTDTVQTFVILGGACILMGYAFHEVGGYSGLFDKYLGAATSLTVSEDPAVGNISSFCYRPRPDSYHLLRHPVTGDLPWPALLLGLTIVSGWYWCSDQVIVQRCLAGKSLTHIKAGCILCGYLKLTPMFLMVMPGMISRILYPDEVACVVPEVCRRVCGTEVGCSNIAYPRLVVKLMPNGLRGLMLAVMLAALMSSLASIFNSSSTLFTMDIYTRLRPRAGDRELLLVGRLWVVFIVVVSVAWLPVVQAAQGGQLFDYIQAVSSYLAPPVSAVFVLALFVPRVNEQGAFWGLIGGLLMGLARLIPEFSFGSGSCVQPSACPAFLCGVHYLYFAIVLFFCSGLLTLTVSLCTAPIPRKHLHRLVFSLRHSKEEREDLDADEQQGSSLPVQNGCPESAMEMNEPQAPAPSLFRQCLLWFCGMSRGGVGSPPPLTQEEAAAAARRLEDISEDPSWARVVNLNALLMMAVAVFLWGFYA
Description: (§1) The compounds can be tested for their SGLT inhibition properties by means of BHK cells expressing SGLT1 and SGLT2. The production of the cells and the testing can be carried out as described below.
Construction and Expression of SGLT2 in BHK Cells
To construct the SGLT2 expression vector (KL224), the SLC5A2 gene (homologous to NM_003041) was amplified from a cDNA library using standard PCR technology and cloned over NheI/XhoI sites into PCI-neo expression vector (Promega) containing neomycin as a selection marker. In this vector, transcription uses the enhancer/promoter of human cytomegalovirus and the SV40 polyadenylation signal.
(§2) The final vector KL224 together with an additional vector containing a dihydrofolate reductase gene as a selection marker was introduced into cells. Transfection into BHK21 cells (ATCC CCL-10), cultivated in DMEM medium (GIBCO/BRL), supplemented with 10% foetal calf serum (FCS) and 20 mM glutamine, was carried out using calcium phosphate transfections according to Graham, F. L. and van der Ebb, A. J. (1973), Virology 52: 456 with 5-20 μg of uncut plasmids for 10^7 cells. Stable transfectants were selected in medium containing 1 mg/ml of G418 (GIBCO/BRL) and 20-5000 nM methotrexate as final concentration, where only cells which expressed the neomycin gene and overexpressed the dhfr gene were able to grow. After growth for 2-3 weeks, the cells were cloned (0.5 cells/well) and the clones were investigated for SGLT expression in radioactivity uptake tests.
(§3) Method of SGLT1/2 Activity Measurement
(§4) The uptake of ^14C-α-methyl-D-glucopyranoside (AMG) in, for example, Xenopus oocytes injected with the corresponding cRNA has been described in principle (for example Wen-Sen Lee et al. (1994), J. Biol. Chem. 269, 12032-12039; Guofeng You et al. (1995), J. Biol. Chem. 270, 29365-29371).
(§5) A 96-well cell-based assay was developed and adapted to HTS requirements:
(§6) BHK cells (transfected with SGLT1 or SGLT2) were seeded into 96-well microtitre plates (Cultureplates, Perkin Elmer). After at least 24 h, medium was removed, and the cell layer was washed with assay buffer (140 mM NaCl, 2 mM KCl, 1 mM CaCl2, 1 mM MgCl2, 10 mM HEPES, 5 mM Tris, adjusted to pH 7.4 using 1 M KOH). After addition of 40 μl of assay buffer, 50 μl of AMG (50 μM for SGLT1 and 2 mM for SGLT2) in the presence or absence of compounds, the cells were incubated in a total volume of 100 μl at 37° C. for 90 min. Supernatant was removed by suction and discarded. Cells were washed and lysed by addition of 50 μl of water. After 10 min at room temperature, 200 μl of Micrsoscint 40 (Perkin Elmer) were added. The radioactivity was counted in a Topcount microplate scintillation counter (Perkin Elmer). The non-specific uptake was determined in sodium-free assay buffer (266 mM sucrose, 2 mM KCl, 1 mM CaCl2, 1 mM MgCl2, 10 mM HEPES, 5 mM Tris, adjusted to pH 7.4 using 1 M KOH).

[2] = target: T2, SGLT1 (Homo sapiens, UniProt P13866); test: 14C-AMG uptake in BHK cells transfected with SGLT1; assay type: cell-based; details: 50 μM AMG, 37° C., 90 min
T2 construct: expressed in transfected cells
T2 sequence (P13866 1-664): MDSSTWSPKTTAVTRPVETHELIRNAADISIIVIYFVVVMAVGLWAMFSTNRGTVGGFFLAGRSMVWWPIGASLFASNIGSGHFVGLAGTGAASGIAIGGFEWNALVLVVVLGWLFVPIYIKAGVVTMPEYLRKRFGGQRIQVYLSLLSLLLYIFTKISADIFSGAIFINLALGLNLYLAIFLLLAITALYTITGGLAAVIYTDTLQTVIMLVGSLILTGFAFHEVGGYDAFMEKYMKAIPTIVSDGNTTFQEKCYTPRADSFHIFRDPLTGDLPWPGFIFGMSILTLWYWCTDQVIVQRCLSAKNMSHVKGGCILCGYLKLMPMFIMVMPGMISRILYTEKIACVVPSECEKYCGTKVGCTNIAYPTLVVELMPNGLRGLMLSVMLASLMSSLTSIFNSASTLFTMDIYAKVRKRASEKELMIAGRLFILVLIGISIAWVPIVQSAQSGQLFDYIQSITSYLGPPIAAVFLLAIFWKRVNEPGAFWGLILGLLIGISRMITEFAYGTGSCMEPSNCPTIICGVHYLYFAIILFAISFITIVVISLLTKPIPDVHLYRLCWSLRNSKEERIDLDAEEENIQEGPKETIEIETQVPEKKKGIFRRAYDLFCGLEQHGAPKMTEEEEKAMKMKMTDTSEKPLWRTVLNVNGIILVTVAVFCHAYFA
Description: as §1
Construction and Expression of SGLT1 in BHK Cells
To construct the SGLT1 expression vector (KL225), the SLC5A1 gene (homologous to NM_000343) was amplified from a cDNA library using standard PCR technology and cloned over NheI/XhoI sites into the pcDNA3.1 expression vector (Invitrogen) containing neomycin as a selection marker. In this vector, transcription uses the enhancer/promoter of human cytomegalovirus.
as §2, with “KL225” for “KL224”
as §3, §4, §5, §6

Molecule	IC50 [1] [µM]	IC50 [2] [µM]
5-(β-D-Glucopyranos-1-yl)-3-(4-methoxyphenyl)benzofuran [Compound A7]	1 to 10	> 10
5-(β-D-glucopyranos-1-yl)-2-(4-methoxyphenyl)benzofuran [Compound A8]	> 10	> 10
6-(β-D-glucopyranos-1-yl)-1R-(4-methoxyphenyl)indane [Compound A3]	> 10	> 10
6-(β-D-glucopyranos-1-yl)-3R-(4-methoxyphenyl)indane [Compound A14]	> 10	> 10
COc1ccc(C2=CCCc3ccc([C@]4(OC)O[C@H](CO)[C@@H](O)[C@H](O)[C@H]4O)cc32)cc1 [Compound A6, 7-(1-Methoxy-D-glucopyranos-1-yl)-1-(4-methoxyphenyl)-3,4-dihydronaphthalene]	> 10	> 10
CCOc1ccc(-n2ccc3ccc([C@@H]4O[C@H](CO)[C@@H](O)[C@H](O)[C@H]4O)cc32)cc1 [Compound A12, 6-(β-D-Glucopyranos-1-yl)-1-(4-ethoxyphenyl)indole]	> 10	> 10

Results, then the molecule that gave them:

IC50 [1] [µM]	IC50 [2] [µM]	Molecule
0.01 to 1	> 10	COc1ccc(C2CCc3ccc([C@@H]4O[C@H](CO)[C@@H](O)[C@H](O)[C@H]4O)cc32)cc1 (stereo partly drawn) [Compound A1, 6-(β-D-glucopyranos-1-yl)-1-(4-methoxyphenyl)indane]
0.01 to 1	> 10	COc1ccc([C@@H]2CCc3ccc([C@@H]4O[C@H](CO)[C@@H](O)[C@H](O)[C@H]4O)cc32)cc1 [Compound A2, 6-(β-D-glucopyranos-1-yl)-1S-(4-methoxyphenyl)indane]
0.01 to 1	> 10	CCOc1ccc(C2CCc3ccc([C@@H]4O[C@H](CO)[C@@H](O)[C@H](O)[C@H]4O)cc32)cc1 (stereo partly drawn) [Compound A4, 6-(β-D-Glucopyranos-1-yl)-1-(4-ethoxyphenyl)indane]
0.01 to 1	> 10	COc1ccc(C2CCCc3ccc([C@@H]4O[C@H](CO)[C@@H](O)[C@H](O)[C@H]4O)cc32)cc1 (stereo partly drawn) [Compound A5, 7-(β-D-Glucopyranos-1-yl)-1-(4-methoxyphenyl)-1,2,3,4-tetrahydro-naphthalene]
0.01 to 1	> 10	COc1ccc(C2COc3ccc([C@@H]4O[C@H](CO)[C@@H](O)[C@H](O)[C@H]4O)cc32)cc1 (stereo partly drawn) [Compound A9, 5-(β-D-Glucopyranos-1-yl)-3-(4-methoxyphenyl)-2,3-dihydrobenzofuran]
0.01 to 1	> 10	COc1ccc([C@@H]2COc3ccc([C@@H]4O[C@H](CO)[C@@H](O)[C@H](O)[C@H]4O)cc32)cc1 [Compound A13]
